Measurements taken from patent US10315990B2, “Isothiocyanate compounds and isothiocyanate XPO1 protein inhibitor drugs thereof” (DRIVINGFORCE THERAPEUTICS Co., Ltd., priority 2015, dated 2019).
Read-outs that look alike come from different tables or passages of the source.

Key:
NCI-H1975 = assay: cells; type: cell-based; settings: Homo sapiens
Description: (§1) NCI-H1975 and NCI-H1650 are two typical high metastasis type lung cancer cell lines. The therapeutic effect of the representative compound for the metastasis type lung cancers can be preliminarily assessed by detecting the inhibitory activity of the representative compound for the two cell lines. The lung cancer cell line was inoculated on 96-well cell culture plate in an amount of 6000 cells per well and cultured at 37° C. for 24 hours, and then treated solely with the compound added therein and cultured. Seventy-two hours later, MTT or CCK-8 method was used to detect the inhibitory activity of the compound for the two lung cancer cell lines.

NCI-H1650 = assay: cells; type: cell-based; settings: Homo sapiens
Description: as §1

XPO1 protein = target: T1, XPO1 protein (Homo sapiens, UniProt O14980); assay: Inhibitory activity for XPO1 protein (NES-GFP nuclear export, laser confocal microscope); type: cell-based; settings: NES-GFP nuclear export, cells treated for 2 hours
T1 construct: Sixteen hours later, NES-GFP plasmid was transfected with liposome; endogenous in cells
From the text: NES (nuclear export signal) is a nuclear export signal peptide recognized by XPO1 protein. XPO1 recognizes NES sequence peptide segment of biomacromolecule and exports the biomacromolecule out of nucleus. NES-GFP protein is obtained by co-expressing green fluorescence protein GFP and NES sequence peptide segment by using a eukaryotic expression plasmid. Inhibitory activity of the representative compound for XPO1 protein can be assessed by detecting influence of the compound on NES-GFP cell localization.
The cells were digested with trypsin, counted, and inoculated on 96-well plate in an amount of 1.5×10^4 cells per well. Sixteen hours later, NES-GFP plasmid was transfected with liposome.

IL-6 = assay: Serum IL-6 level of IBD animal model (ELISA); type: in vivo, SD rats; settings: 80 mg/kg, three days after making the TNBS model
From the text: (§2) Inflammatory bowel disease is an autoimmune disease. […] The therapeutic effect of the representative compound for the immune system disease or inflammation can be assessed by detecting change in levels of some important cytokines such as TNF-α and IL-6 at downstream of the signal path.

TNF-α = assay: Serum TNF-α level of IBD animal model (ELISA); type: in vivo, SD rats; settings: 80 mg/kg, three days after making the TNBS model
From the text: as §2

HMLE-Snail cell line = assay: Formation of HMLE-Snail cell line spheroids; type: cell-based; settings: read-out: Colony (%): cell colony number of drug-treated group/cell colony number of control group × 100%
Description: HMLE-Snail cell line is one of most classic cell models for studying tumor cell metastasis and EMT path. HMLE-Snail cell line highly expresses Snail protein, and thus one of most remarkable features thereof is that it has spherical cellular morphology (spheroid). […] The HMLE-Snail cell line used in the present invention was donated by Dr. Robert Weinberg from America Massachusetts Whitehead Institute. HMLE-Snail cells were suspended in a liquid culture medium (in which B-27 and N-2 were added, purchased from America Invitrogen Corporation) containing DMEM/F12 in a ratio of 1:1, in an amount of 1.0×10^3 cells/ml, and cultured in an ultra low attachment culture plate so as to allow spheroids to be formed. Seven days later, spheroids were collected by centrifugation, and counted. […] Docetaxel is a common clinical chemotherapy drug.

IBD animal model = assay: Macroscopic pathological changes of IBD animal model (enteroclysis with TNBS); type: in vivo, SD rats; settings: 80 mg/kg intragastrically daily, TNBS rats, score 0-5, 10 animals
Description: Eight-week-old male SD rats (10 rats per group) were fasted for 24 hours and anaesthetized with diethyl ether. 50% ethanol and TNBS (2,4,6-trinitrobenzenesulfonic acid) were mixed to prepare a solution. In the IBD model group, a tube made of vinyl resin was inserted 5 cm from anus, and enteroclysis was performed with the TNBS solution in a dose of 100 mg/kg. The rats were hung upside down 30 seconds later after the enteroclysis to ensure no leakage of the TNBS solution. In the control group, the TNBS solution was replaced with normal saline with which enteroclysis was performed. Seven days later after the enteroclysis with the TNBS solution or normal saline, animals were sacrificed and dissected. […] Two weeks later after treated with the drugs, the animals were sacrificed and dissected, and large intestine thereof was taken out and fixed in 4% formalin solution for 30 minutes. The large intestine of the animals was cut lengthwise from the mesentery side to take photos for rectum portion and measure the weight of rectum. Based on the macroscopic observation and judgment score (Table 2-1), ulceration and bleeding states of rectum portion were scored according to the macroscopic observation scoring standard.

HCT116 = assay: Inhibitory activity for high metastasis type colon cancer cell line (MTT or CCK-8); type: cell-based; settings: Homo sapiens
Description: (§3) SW620 and HCT116 are two typical high metastasis type colon cancer cell lines. The colon cancer cell line was inoculated on 96-well cell culture plate in an amount of 6000 cells per well and cultured at 37° C. for 24 hours, and then treated solely with the compound added therein and cultured. Seventy-two hours later, MTT or CCK-8 method was used to detect the inhibitory activity of the compound for the two high metastasis type colon cancer cell lines.

SW620 = assay: as above; type: cell-based; settings: Homo sapiens
Description: as §3

Raji = assay: Inhibitory activity for high metastasis type lymphoma cell line (MTT or CCK-8); type: cell-based; settings: Homo sapiens
Description: (§4) Jeko-1, Raji and U2932 are three typical high metastasis type lymphoma cell lines. The lymphoma cell line was inoculated on 96-well cell culture plate in an amount of 6000 cells per well and cultured at 37° C. for 24 hours, and then treated solely with the compound added therein and cultured. Seventy-two hours later, MTT or CCK-8 method was used to detect the inhibitory activity of the compound for the two high metastasis type lymphoma cell lines.

U2932 = assay: as above; type: cell-based; settings: Homo sapiens
Description: as §4

Jeko-1 = assay: as above; type: cell-based; settings: Homo sapiens
Description: as §4

[1] = system: SK-OV3 (high metastasis type ovarian cancer cell line); assay: Ovarian cancer intraperitoneal metastasis animal model; type: in vivo, nudemice (BALB/c-nu/nu); settings: Mus musculus, SK-OV-3, ip; for response vs control in vivo at 80 mg/kg: 504 h, read-out: T/C (%); for mortality at 80 mg/kg: 720 h, six mice per group, read-out: Mortality (within 30 days) (converted)
Description: The ovarian cancer intraperitoneal metastasis animal model is one of most classic animal models for studying anti-ovarian cancer metastasis drug. Sixty 5 to 6-week-old female nudemice with similar weight (BALB/c-nu/nu) were chosen. SK-OV3 (high metastasis type ovarian cancer cell line) stably expressing green fluorescence protein was screened, and prepared into a cell suspension of 2×10^6 cells/100 μl with serum-free PRMI1640 medium. […] Three weeks later, the cancer was detected with a small animal in vivo imaging apparatus (Xenogen, School of Medicine, Shanghai Jiaotong University) and photos thereof were taken. […] In the table, T represents the drug-treated group, and C represents the blank control group. T/C is (V/V0 of compound-treated group)/(V/V0 of blank control group) in which V represents the cancer volume of mouse on the day the detection was performed, and V0 represents the cancer volume of mouse on the day the administration begun.

HO-8910 = assay: Inhibitory activity for high metastasis type ovarian cancer cell line (MTT or CCK-8); type: cell-based; settings: HO-8910, 72 hours; read-out: IC50
Description: (§5) The two cell lines were inoculated on 96-well cell culture plate in an amount of 6000 cells per well and cultured at 37° C. for 24 hours, and then treated solely with the representative compound added therein and cultured. Seventy-two hours later, MTT or CCK-8 method was used to detect the inhibitory activity of the representative compound for the high metastasis type ovarian cancer cell lines.

A2780 = assay: as above; type: cell-based; settings: Homo sapiens; A2780, 72 hours; read-out: IC50
Description: as §5

[2] = NCI-H1975, 72 hours, read-out: IC50
[3] = NCI-H1650, 72 hours, read-out: IC50
[4] = 10 μg/ml, treated for 24 hours, control = 100
[5] = HCT-116, HCT116, 72 hours, read-out: IC50
[6] = SW-620, SW620, 72 hours, read-out: IC50
[7] = U2932, 72 hours, read-out: IC50
[8] = Jeko-1, 72 hours, read-out: IC50
[9] = 80 mg/kg intraperitoneal injection once a day for 3 weeks

T1 sequence (O14980 whole entry, species assumed): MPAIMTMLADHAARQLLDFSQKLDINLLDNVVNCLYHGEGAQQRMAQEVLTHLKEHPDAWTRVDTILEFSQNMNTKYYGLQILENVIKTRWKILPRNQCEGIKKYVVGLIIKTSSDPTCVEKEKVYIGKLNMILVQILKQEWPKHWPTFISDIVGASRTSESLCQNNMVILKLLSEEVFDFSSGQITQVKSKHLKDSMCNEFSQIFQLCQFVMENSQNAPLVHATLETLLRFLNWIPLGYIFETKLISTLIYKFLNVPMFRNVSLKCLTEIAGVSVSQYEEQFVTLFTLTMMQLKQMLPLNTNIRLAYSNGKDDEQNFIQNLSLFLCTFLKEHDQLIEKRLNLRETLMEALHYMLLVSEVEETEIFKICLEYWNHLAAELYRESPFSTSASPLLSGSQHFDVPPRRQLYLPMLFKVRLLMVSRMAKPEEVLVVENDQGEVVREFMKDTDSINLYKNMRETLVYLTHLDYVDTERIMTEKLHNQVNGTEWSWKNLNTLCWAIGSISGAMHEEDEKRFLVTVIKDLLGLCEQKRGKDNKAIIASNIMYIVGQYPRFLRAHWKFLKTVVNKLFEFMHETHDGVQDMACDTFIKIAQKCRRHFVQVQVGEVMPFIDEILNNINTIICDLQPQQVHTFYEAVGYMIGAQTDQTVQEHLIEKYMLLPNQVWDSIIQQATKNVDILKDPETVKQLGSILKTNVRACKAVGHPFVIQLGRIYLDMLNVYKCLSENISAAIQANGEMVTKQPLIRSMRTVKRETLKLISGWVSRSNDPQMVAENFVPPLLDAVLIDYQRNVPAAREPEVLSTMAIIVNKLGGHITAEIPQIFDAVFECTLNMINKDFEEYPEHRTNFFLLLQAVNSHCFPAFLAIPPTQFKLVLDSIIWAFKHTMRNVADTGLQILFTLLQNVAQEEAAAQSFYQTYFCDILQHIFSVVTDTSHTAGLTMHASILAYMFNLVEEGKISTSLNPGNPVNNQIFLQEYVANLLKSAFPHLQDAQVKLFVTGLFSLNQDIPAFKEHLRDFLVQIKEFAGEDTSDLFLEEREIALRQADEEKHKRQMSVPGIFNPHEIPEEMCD

SMILES	IC50 (NCI-H1975; [2])	IC50 (NCI-H1650; [3])	Activity (μM): inhibitory activity for XPO1 protein (full inhibitory concentration) (XPO1 protein)	Serum IL-6 level, Animal-1 (IL-6)	Serum IL-6 level, Animal-2 (IL-6)	Serum IL-6 level, Animal-3 (IL-6)	Serum TNF-α level, Animal-1 (TNF-α)	Serum TNF-α level, Animal-2 (TNF-α)	Serum TNF-α level, Animal-3 (TNF-α)	activity at 10 µg/mL (HMLE-Snail cell line; [4])	Macroscopic pathological score (IBD animal model)	IC50 (HCT116; [5])	IC50 (SW620; [6])	IC50 (Raji; 72 hours, read-out: IC50)	IC50 (U2932; [7])	IC50 (Jeko-1; [8])	response vs control in vivo at 80 mg/kg [1, 9]	mortality at 80 mg/kg [1]	IC50 (HO-8910)	IC50 (A2780)	further results
[O-][S+](/C=C/CCN=C=S)C1CC1 (stereo not drawn) [Compound F-03, reference compound]	5.8 µM	4.9 µM	5 to 10 µM	1.7 ng/mL	1.8 ng/mL	1.8 ng/mL	1.7 ng/mL	1.6 ng/mL	1.5 ng/mL	55 to 60%	2.5 ± 0.6	2.9 µM	3.3 µM	3.2 µM	4.9 µM	3.1 µM	35%	0%	–	–	–
CS/C=C/CCN=C=S [Compound F-06, reference compound]	17.2 µM	16.3 µM	15 to 20 µM	2.8 ng/mL	2.5 ng/mL	2.3 ng/mL	2.3 ng/mL	2.0 ng/mL	2.2 ng/mL	70 to 75%	3.5 ± 0.2	15.6 µM	17.8 µM	13.5 µM	14.7 µM	12 µM	80%	16.7%	–	–	–
[O-][S+](/C=C/CCN=C=S)c1cc(C(F)(F)F)cc(C(F)(F)F)c1 (stereo not drawn) [Compound I-04]	–	–	0.250 µM	–	–	–	–	–	–	–	1.0 ± 0.5	–	–	–	–	–	–	0%	–	–	IC50 (NCI-H1975; NCI-H1975, 72 h): 0.09 µM; IC50 (NCI-H1650; NCI-H1650, 72 h): 0.08 µM; activity at 10 µg/mL (HMLE-Snail cell line; 24 h): 10 to 15%; IC50 (HCT116; HCT-116, 72 h): 0.07 µM; IC50 (SW620; SW-620, 72 h): 0.09 µM; IC50 (Raji; 72 h): 0.06 µM; IC50 (U2932; U2932, 72 h): 0.09 µM; IC50 (Jeko-1; JeKo-1, 72 h): 0.05 µM; response vs control in vivo at 80 mg/kg [1]: 19%
[O-][S+](/C=C/CCN=C=S)c1nnnn1-c1ccccc1 (stereo not drawn) [Compound I-25]	0.25 µM	0.22 µM	–	0.6 ng/mL	0.7 ng/mL	0.5 ng/mL	1.0 ng/mL	0.5 ng/mL	0.8 ng/mL	10 to 15%	1.5 ± 0.3	–	–	0.18 µM	0.25 µM	0.15 µM	–	–	0.3 µM	0.7 µM	–
[O-][S+](/C=C/CCN=C=S)c1ccc(Oc2ccccc2)cc1 (stereo not drawn) [Compound I-27]	–	–	0.5 to 1 µM	–	–	–	–	–	–	25 to 30%	–	–	–	–	–	–	25%	0%	0.8 µM	1.2 µM	–
